One block for each compound: values may come before it.
How the values were obtained:
[1] = system: human CD34+ hematopoietic stem cells (HSC); experiment: Hematopoietic stem cell expansion, CD34+ cells by flow cytometry after 12-day culture; assay type: cell-based
Method: The ability of compounds of formula (I) to facilitate hematopoietic stem cell expansion was determined by testing 1-methyl-7-(2-methyl-4-(6-(trifluoromethyl)pyrido[3,2-d]pyrimidin-2-yl)phenyl)-6,7-dihydro-1H-pyrazolo[3,4-f][1,4]oxazepin-8(5H)-one (compound 1) and 3-methyl-5-(2-methyl-4-(6-(trifluoromethyl)quinazolin-2-yl)phenyl)-6,7-dihydropyrazolo[1,5-a]pyrazin-4(5H)-one (compound 2) as follows.
Isolated human CD34^+ hematopoietic stem cells (HSC) were obtained from AllCells (Alameda, Calif., USA). 5,000 HSC per well were cultivated in 100 μL HSC expansion media StemSpan SFEM (StemCell Technologies; Vancouver, BC, Canada) containing 1× antibiotics (Life Technologies, Carlsbad, Calif., USA), 100 ng/mL thrombopoietin, 100 ng/mL IL-6, 100 ng/mL Flt3 ligand and 100 ng/mL stem cell factor (all R&D Systems, Minneapolis, Minn., USA) in a flat bottom 96 well tissue culture plate. 100 μL of 3-fold serial diluted compound 1 or 2 (final concentration range 0.169-10,000 nM) was added at 2× of the final concentration to HSC culture and HSC culture plates were incubated in a humidity-controlled incubator at […], 5% CO2. After 12 days, the absolute viable cell counts from each well were determined. HSC were then stained in staining buffer composed of Hank's balanced salt solution with 2% fetal bovine serum and 2 mM EDTA (all Life Technologies) at 4° C. for 1 hour with anti-CD90 APC, anti-CD34 PerCP, anti-CD38 FITC, CD45RA PE-Cy7 and anti-CD133 PE antibodies (all BD Biosciences, San Jose, Calif., USA). HSC were washed with staining buffer and HSC were analyzed by multicolor phenotype flow cytometry. The percentages of CD34^+ cells were determined as percentage of total population. Absolute counts of each population were calculated from the total number of viable cells multiplied by the percentage of each population. The EC50 value for the frequency of CD34+ cells, defined as the compound concentration with half maximal response on the dose response curve, was calculated using Prism 7 (GraphPad Software, La Jolla, Calif., USA).

hAhR = biological target: T1, hAhR (Homo sapiens, UniProt P35869); experiment: AhR antagonist DRE-luciferase reporter transcriptional assay (TCDD-induced) in HEPG2 DRE-Luc cells; assay type: cell-based; conditions: relative IC50, HEPG2 DRE-Luc cells, 3 nM TCDD, 24 h incubation; read-out: IC50 hAhR (antagonist mode)
T1 construct: endogenous in cells; host or cells: HEPG2 cells with stably integrated Cignal XRE (DRE) luciferase reporter
T1 sequence (P35869 11-848): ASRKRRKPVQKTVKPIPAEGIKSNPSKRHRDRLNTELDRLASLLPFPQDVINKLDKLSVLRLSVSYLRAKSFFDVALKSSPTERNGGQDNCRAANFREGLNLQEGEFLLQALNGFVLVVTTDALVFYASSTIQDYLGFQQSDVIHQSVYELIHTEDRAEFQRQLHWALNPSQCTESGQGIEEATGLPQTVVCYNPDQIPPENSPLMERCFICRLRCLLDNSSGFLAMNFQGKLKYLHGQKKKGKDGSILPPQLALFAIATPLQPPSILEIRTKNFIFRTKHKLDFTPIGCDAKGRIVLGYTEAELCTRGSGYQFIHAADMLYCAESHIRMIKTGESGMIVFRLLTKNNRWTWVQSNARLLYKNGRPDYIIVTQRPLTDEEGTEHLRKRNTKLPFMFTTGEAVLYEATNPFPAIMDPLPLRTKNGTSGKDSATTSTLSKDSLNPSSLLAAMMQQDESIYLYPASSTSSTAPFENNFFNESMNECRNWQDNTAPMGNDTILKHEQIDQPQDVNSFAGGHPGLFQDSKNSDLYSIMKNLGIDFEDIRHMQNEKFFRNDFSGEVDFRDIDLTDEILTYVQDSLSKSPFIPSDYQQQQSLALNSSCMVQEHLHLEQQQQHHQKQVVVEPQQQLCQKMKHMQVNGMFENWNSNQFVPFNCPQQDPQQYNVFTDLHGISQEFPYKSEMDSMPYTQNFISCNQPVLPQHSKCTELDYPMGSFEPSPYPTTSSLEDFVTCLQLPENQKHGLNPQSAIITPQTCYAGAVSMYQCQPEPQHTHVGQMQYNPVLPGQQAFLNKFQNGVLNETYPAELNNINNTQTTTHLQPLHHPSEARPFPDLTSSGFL
Method: The ability of compounds of formula (I) to antagonize AhR was tested as follow. HEPG2 and HEPA1C1C7 cells were maintained in MEM and αMEM without nucleosides supplemented with 10% heat inactivated FBS respectively. Stably integrated DRE-luciferase cell lines were generated by transducing the both cell lines with Cignal XRE luciferase reporter (Qiagen) lentiviral particles according to the manufacturer protocol. For both cell lines, stably integrated reporter cell lines were selected for the presence of 2 μg/mL puromycin. Following selection of stably integrated cell line pools, clonal cell lines were isolated by limiting dilution in 96-well plates. […]
To determine AhR antagonist activity of compound of formula (I), the compounds were added in a semi-log dose response using a D300e Digital Dispenser (Tecan) followed normalization with vehicle (DMSO). […] Firefly luciferase activity was measured immediately following the addition of 50 μL Luciferase Assay Reagent (Promega). The percent maximal activity for each point was determined using the following equation: (RLUsample−RLUvehicle−TCDD)/(RLUvehicle+TCDD RLUvehicle−TCDD)*100. The relative IC50, defined as the compound concentration required to reduce the TCDD induced response between the top and bottom plateau of each individual dose response curve by half, for each compound was determined using Prism7 (GraphPad Software).

[2] = compound concentration 3,333 nM

SMILES: Cc1cc(-c2ncc3nc(C(F)(F)F)ccc3n2)ccc1N1CCOc2cnn(C)c2C1=O [Example 001, 1-methyl-7-(2-methyl-4-(6-(trifluoromethyl)pyrido[3,2-d]pyrimidin-2-yl)phenyl)-6,7-dihydro-1H-pyrazolo[3,4-f][1,4]oxazepin-8(5H)-one]
CD34+ cell counts, fold expansion [1, 2]: 2.4 fold
frequency of CD34+ HSC, fold increase [1, 2]: 3.1 fold

IC50 (hAhR): < 200 nM
SMILES: Cc1cc(-c2ncc3cc(C(F)(F)F)ccc3n2)ccc1N1CCOc2cn[nH]c2C1=O [Example 033, 7-(2-methyl-4-(6-(trifluoromethyl)quinazolin-2-yl)phenyl)-6,7-dihydro-1H-pyrazolo[3,4-f][1,4]oxazepin-8(5H)-one]

IC50 (hAhR): 200 to 500 nM
SMILES: Cc1cc(-c2ncc3cc(C(F)(F)F)ccc3n2)ccc1N1CCOc2cnn(CCO)c2C1=O [Example 034, 1-(2-hydroxyethyl)-7-(2-methyl-4-(6-(trifluoromethyl)quinazolin-2-yl)phenyl)-6,7-dihydro-1H-pyrazolo[3,4-f][1,4]oxazepin-8(5H)-one]

SMILES: Cc1cc(-c2ncc3cc(C(F)(F)F)ccc3n2)ccc1N1CCn2ncc(C)c2C1=O [Example 002, 3-methyl-5-(2-methyl-4-(6-(trifluoromethyl)quinazolin-2-yl)phenyl)-6,7-dihydropyrazolo[1,5-a]pyrazin-4(5H)-one]
frequency of CD34+ HSC, fold increase ([1]; compound concentration 1,111 nM): 3.6 fold
CD34+ cell counts, fold expansion ([1]; compound concentration 10,000 nM): 4.0 fold

From patent publication US20210254006A1, “METHODS OF CULTURING AND/OR EXPANDING STEM CELLS AND/OR LINEAGE COMMITTED PROGENITOR CELLS USING LACTAM COMPOUNDS” (IDEAYA BIOSCIENCES, INC., priority 2018, published 2021)
